≈ marks a conversion by molar mass, not a printed value.
Tests used:
Test in all cases: Microtitre plate assay, IC90 determination
Type in all cases: cell-based
[1] = tested on: SPN 6305 (Streptococcus pneumoniae (ATCC6305)); conditions: for IC90 (μg/ml) SPN 6305: Streptococcus pneumoniae (ATCC6305)
Experimental: (§1) The bacteria used in this study were grown overnight in flasks containing 100 ml Mueller-Hinton Broth (Becton Dickinson—cat. no. 275730) in sterile de-ionized water, with shaking, at 37° C. Stocks (0.5 ml/tube) were stored at −70° C. until use. Bacteria titrations were performed in microtiter plates and colony forming units (CFUs) were determined. In general, an inoculum level of approximately 100 CFUs was used for susceptibility testing.
(§2) Flat-bottom, sterile 96-well plastic microtiter plates were filled with 180 μl of sterile deionized water, supplemented with 0.25% BSA. Subsequently, stock solutions (7.8× final test concentration) of compounds were added in 45 μl volumes in column 2. Serial five-fold dilutions (45 μl in 180 μl) were made directly in the microtiter plates from column 2 to reach column 11. Untreated control samples with (column 1) and without (column 12) inoculum were included in each microtiter plate. Depending on the bacteria type, approximately 10 to 60 CFU per well of bacteria inoculum (100 TCID50), in a volume of 100 μl in 2.8× Mueller-Hinton broth medium, was added to the rows A to H, except column 12. The same volume of broth medium without inoculum was added to column 12 in row A to H. The cultures were incubated at 37° C. for 24 hours under a normal atmosphere (incubator with open air valve and continuous ventilation). At the end of incubation, one day after inoculation, the bacterial growth was quantitated fluorometrically. Therefore resazurin (0.6 mg/ml) was added in a volume of 20 μl to all wells 3 hours after inoculation, and the plates were re-incubated overnight. A change in colour from blue to pink indicated the growth of bacteria. The fluorescence was read in a computer-controlled fluorometer (Cytofluor Biosearch) at an excitation wavelength of 530 nm and an emission wavelength of 590 nm. The % growth inhibition achieved by the compounds was calculated according to standard methods. The IC90 (expressed in μg/ml) was defined as the 90% inhibitory concentration for bacterial growth.

[2] = tested on: STA 29213 (Staphylococcus aureus (ATCC29213)); conditions: for IC90 (μg/ml) STA 29213: Staphylococcus aureus (ATCC29213)
Experimental: as §1, §2

[3] = tested on: STA RMETH (methicilline resistant Staphylococcus aureus (MRSA), a clinical isolate from the University of Antwerp)

| SMILES | IC90 (μg/ml) SPN 6305 [1] | IC90 (μg/ml) STA 29213 [2] | IC90 ([1]; Streptococcus pneumoniae, ATCC6305, Streptococcus pneumoniae (ATCC6305), read-out: IC90 (μg/ml) SPN 6305) | IC90 ([2]; Staphylococcus aureus, ATCC29213, Staphylococcus aureus (ATCC29213), read-out: IC90 (μg/ml) STA 29213) | IC90 (μg/ml) STA RMETH [3] |
| --- | --- | --- | --- | --- | --- |
| COc1nc2ccc(Br)cc2cc1C(c1ccccc1)C(O)(CCCCN1CCNCC1)c1ccccc1 (racemic) [Compound 105] | 2.29 µg/mL (≈ 3.99 µM) | 2.04 µg/mL (≈ 3.55 µM) |  |  | 11.46 µg/mL (≈ 19.9 µM) |
| CCN(CC)CCCCC(O)(c1ccc2ccccc2c1)C(c1ccccc1)c1cc2cc(Br)ccc2nc1OC (racemic) [Compound 86] | 2.43 µg/mL (≈ 3.97 µM) | 2.17 µg/mL (≈ 3.55 µM) |  |  | 2.17 µg/mL (≈ 3.55 µM) |
| COc1nc2cc(C)ccc2cc1C(c1ccccc1)C(O)(CCCCN(C)C)c1ccc2ccccc2c1 (single isomer, unassigned) [Compound 77] | 1.84 µg/mL (≈ 3.55 µM) | 1.84 µg/mL (≈ 3.55 µM) |  |  |  |
| COc1nc2ccc(Br)cc2cc1C(c1ccccc1)C(O)(CCCCN(C)C)CCC(C)C (racemic) [Compound 119] | 4.19 µg/mL (≈ 7.94 µM) | 18.72 µg/mL (≈ 35.5 µM) |  |  |  |
| COc1nc2ccc(Br)cc2cc1C(c1ccccc1)C(O)(CCCCN(C)C)CCc1ccco1 (single isomer, unassigned) [Compound 130] | 6.19 µg/mL (≈ 11.2 µM) | 8.74 µg/mL (≈ 15.8 µM) |  |  |  |
| COc1nc2ccccc2cc1C(c1cccc(Br)c1)C(O)(CCCCN(C)C)c1ccc2ccccc2c1 (single isomer, unassigned) [Compound 160] | 2.07 µg/mL (≈ 3.55 µM) | 1.85 µg/mL (≈ 3.17 µM) |  |  |  |
| COc1nc2ccc(Br)cc2cc1C(c1ccccc1)C(O)(CCCCN1CCN(C)CC1)CCc1cccc2ccccc12 (single isomer, unassigned) [Compound 143] | 10.57 µg/mL (≈ 15.9 µM) | 10.57 µg/mL (≈ 15.9 µM) |  |  |  |
| COc1nc2ccccc2cc1C(c1ccc(-c2ccccc2)cc1)C(O)(CCCCN(C)C)c1ccc2ccccc2c1 (stereo not drawn) [Compound 175] | 2.06 µg/mL (≈ 3.55 µM) | 1.84 µg/mL (≈ 3.17 µM) |  |  |  |
| COc1nc2ccc(C)cc2cc1C(c1ccccc1)C(O)(CCCCCN(C)C)c1ccccc1 (single isomer, unassigned) [Compound 153] | 7.65 µg/mL (≈ 15.8 µM) | 3.8 µg/mL (≈ 7.87 µM) |  |  |  |
| COc1nc2ccc(Br)cc2cc1C(c1ccccc1)C(O)(CCCCN(C)C)c1cc(F)cc(F)c1 (stereo not drawn) [Compound 12] | 11.4 µg/mL (≈ 20 µM) | 45.2 µg/mL (≈ 79.4 µM) |  |  |  |
| COc1nc2ccc(Br)cc2cc1C(c1ccccc1)C(O)(CCCCc1ccccc1)CCCCN(C)C (single isomer, unassigned) [Compound 147] | 9.34 µg/mL (≈ 15.8 µM) | 9.34 µg/mL (≈ 15.8 µM) |  |  |  |
| COc1nc2ccc(Br)cc2cc1C(c1ccccc1)C(O)(CCCCN(C)C)c1cccnc1 (stereo not drawn) [Compound 16] | 8.5 µg/mL (≈ 15.9 µM) | 8.5 µg/mL (≈ 15.9 µM) |  |  |  |
| COc1nc2ccc(Br)cc2cc1C(c1ccccc1)C(O)(CCCCN(C)C)CC(C)C (racemic) [Compound 117] | 2.29 µg/mL (≈ 4.46 µM) | 9.13 µg/mL (≈ 17.8 µM) |  |  |  |
| COc1nc2ccc(Br)cc2cc1C(c1ccccc1)C(O)(CCCCCN(C)C)c1ccccc1 (single isomer, unassigned) [Compound 155] | 1.7 µg/mL (≈ 3.1 µM) | 1.7 µg/mL (≈ 3.1 µM) |  |  |  |
| COc1nc2ccc(Br)cc2cc1C(c1ccccc1)C(O)(CCCCN1CCN(C)CC1)c1ccc2ccccc2c1 (single isomer, unassigned) [Compound 113] | 2.54 µg/mL (≈ 3.98 µM) | 14.3 µg/mL (≈ 22.4 µM) |  |  |  |
| CSc1nc2ccc(Br)cc2cc1C(c1ccccc1)C(O)(CCCCN(C)C)c1ccc2ccccc2c1 (single isomer, unassigned) [Compound 3] | 60.0 µg/mL (≈ 100 µM) | 60.0 µg/mL (≈ 100 µM) |  |  |  |
| COc1nc2ccc(Br)cc2cc1C(c1ccccc1)C(O)(CCCCN(C)C)CC(C)C (racemic) [Compound 118] | 5.14 µg/mL (≈ 10 µM) | 8.14 µg/mL (≈ 15.9 µM) |  |  |  |
| COc1nc2ccccc2cc1C(c1cccc(Br)c1)C(O)(CCCCN(C)C)c1ccc2ccccc2c1 (single isomer, unassigned) [Compound 162] | 2.07 µg/mL (≈ 3.55 µM) | 1.85 µg/mL (≈ 3.17 µM) |  |  |  |
| CNCCCCCC(O)(c1ccccc1)C(c1ccccc1)c1cc2cc(C)ccc2nc1OC (single isomer, unassigned) [Compound 151] | 2.12 µg/mL (≈ 4.52 µM) | 1.7 µg/mL (≈ 3.63 µM) |  |  |  |

Further lines, with some results ahead:

| IC90 (μg/ml) SPN 6305 [1] | IC90 (μg/ml) STA 29213 [2] | IC90 ([1]; Streptococcus pneumoniae, ATCC6305, Streptococcus pneumoniae (ATCC6305), read-out: IC90 (μg/ml) SPN 6305) | IC90 ([2]; Staphylococcus aureus, ATCC29213, Staphylococcus aureus (ATCC29213), read-out: IC90 (μg/ml) STA 29213) | SMILES | IC90 (μg/ml) STA RMETH [3] |
| --- | --- | --- | --- | --- | --- |
| 2.34 µg/mL (≈ 3.98 µM) | 8.31 µg/mL (≈ 14.1 µM) |  |  | COc1nc2ccc(Br)cc2cc1C(c1ccccc1)C(O)(CCCCN1CCN(C)CC1)c1ccccc1 (single isomer, unassigned) [Compound 108] |  |
| 2.23 µg/mL (≈ 3.54 µM) | 1.99 µg/mL (≈ 3.16 µM) |  |  | COc1nc2ccc(Br)cc2cc1C(c1ccccc1)C(O)(CCCCc1ccccc1)CCCCN1CCCCC1 (single isomer, unassigned) [Compound 148] |  |
| 1.9 µg/mL (≈ 3.18 µM) | 4.2 µg/mL (≈ 7.03 µM) |  |  | COc1nc2ccc(Br)cc2cc1C(c1ccccc1)C(O)(CCCCCN(C)C)c1ccc2ccccc2c1 (stereo not drawn) [Compound 58] |  |
| 1.85 µg/mL (≈ 3.17 µM) | 1.85 µg/mL (≈ 3.17 µM) |  |  | COc1nc2ccccc2cc1C(c1ccc(Br)cc1)C(O)(CCCCN(C)C)c1ccc2ccccc2c1 (stereo not drawn) [Compound 66] |  |
| 0.31 µg/mL (≈ 0.502 µM) | 1 µg/mL (≈ 1.62 µM) |  |  | COc1nc2ccc(Br)cc2cc1C(c1cccc(Cl)c1)C(O)(CCCCN(C)C)c1ccc2ccccc2c1 (single isomer, unassigned) [Compound 163] |  |
| 0.4 µg/mL (≈ 0.627 µM) | 1.8 µg/mL (≈ 2.82 µM) |  |  | COc1nc2ccc(Br)cc2cc1C(c1ccccc1)C(O)(CCCCN1CCC(C)CC1)c1ccc2ccccc2c1 (racemic) [Compound 103] |  |
| 11.44 µg/mL (≈ 19.9 µM) | 9.09 µg/mL (≈ 15.8 µM) |  |  | COc1nc2ccc(Br)cc2cc1C(c1ccccc1)C(O)(CCCCN1CCCCC1)c1ccccc1 (single isomer, unassigned) [Compound 100] |  |
| 1.91 µg/mL (≈ 3.16 µM) | 1.91 µg/mL (≈ 3.16 µM) |  |  | COc1ccc(C(O)(CCCCN2CCCCC2)C(c2ccccc2)c2cc3cc(Br)ccc3nc2OC)cc1 (racemic) [Compound 97] |  |
| 2.19 µg/mL (≈ 3.55 µM) | 1.95 µg/mL (≈ 3.16 µM) |  |  | COc1ccc(C(c2cc3cc(Br)ccc3nc2OC)C(O)(CCCCN2CCCCC2)c2ccc(C)cc2)cc1 (single isomer, unassigned) [Compound 167] |  |
| 2.04 µg/mL (≈ 3.56 µM) | 1.81 µg/mL (≈ 3.16 µM) |  |  | COc1nc2ccc(Br)cc2cc1C(c1ccccc1)C(O)(CCCCN1CCCCC1)c1ccccc1 (single isomer, unassigned) [Compound 99] |  |
|  |  | 10.3 µg/mL (≈ 17.8 µM) | 11.5 µg/mL (≈ 19.9 µM) | COc1nc2ccc(Br)cc2cc1C(c1ccccc1)C(O)(CCCCN(C)C)c1ccc2c(c1)OCO2 (stereo not drawn) [Compound 10] |  |
| 2.32 µg/mL (≈ 3.98 µM) | 1.85 µg/mL (≈ 3.17 µM) |  |  | COc1nc2ccccc2cc1C(c1ccc(Br)cc1)C(O)(CCCCN(C)C)c1ccc2ccccc2c1 (stereo not drawn) [Compound 65] |  |
| 2.28 µg/mL (≈ 3.55 µM) | 2.03 µg/mL (≈ 3.16 µM) |  |  | COc1nc2ccc(Br)cc2cc1C(c1ccc(Cl)c(Cl)c1)C(O)(CCCCN1CCCCC1)c1ccccc1 (single isomer, unassigned) [Compound 172] |  |
| 2.23 µg/mL (≈ 3.54 µM) | 1.99 µg/mL (≈ 3.16 µM) |  |  | COc1nc2ccc(Br)cc2cc1C(c1ccccc1)C(O)(CCCCc1ccccc1)CCCCN1CCCCC1 (single isomer, unassigned) [Compound 149] |  |
| 4.68 µg/mL (≈ 7.95 µM) | 9.33 µg/mL (≈ 15.9 µM) |  |  | COc1nc2ccc(Br)cc2cc1C(c1ccccc1)C(O)(CCCCN1CCN(C)CC1)c1ccccc1 (single isomer, unassigned) [Compound 110] |  |
| 1.81 µg/mL (≈ 3.16 µM) | 4.06 µg/mL (≈ 7.08 µM) |  |  | COc1nc2ccc(Br)cc2cc1C(c1ccccc1)C(O)(CCCCN1CCCCC1)c1ccccc1 (racemic) [Compound 94] |  |
| 2.04 µg/mL (≈ 3.56 µM) | 1.81 µg/mL (≈ 3.16 µM) |  |  | COc1nc2ccc(Br)cc2cc1C(c1ccccc1)C(O)(CCCCN1CCCCC1)c1ccccc1 (single isomer, unassigned) [Compound 98] |  |
| 1.91 µg/mL (≈ 3.16 µM) | 1.91 µg/mL (≈ 3.16 µM) |  |  | COc1ccc(C(c2cc3cc(Br)ccc3nc2OC)C(O)(CCCCN2CCCCC2)c2ccccc2)cc1 (single isomer, unassigned) [Compound 166] |  |
| 9.95 µg/mL (≈ 17.8 µM) | 11.16 µg/mL (≈ 19.9 µM) |  |  | COc1nc2ccc(Br)cc2cc1C(c1ccccc1)C(O)(CCCCN1CCCC1)c1ccccc1 (racemic) [Compound 93] |  |

— patent US8841321B2, “Quinoline derivatives as antibacterial agents” (Janssen Pharmaceutica NV, priority 2005, dated 2014)
